Here are results for 8 compounds from ChEMBL document CHEMBL1128610, “Synthesis of potential -lactam antibiotics” (1995).

Test [1] concerns Staphylococcus aureus. Nature of the test: Minimum inhibitory concentration required for antibacterial activity against Staphylococcus aureus ATCC 29213. It is filed as functional.
Test [2] relates to Escherichia coli. Nature of the test: Minimum inhibitory concentration required for antibacterial activity against Escherichia coli ATCC 25922. It is filed as functional.
For test [3], the system named is Staphylococcus aureus. Put plainly: Compound was evaluated for antibacterial activity against Staphylococcus aureus ATCC 29213; Inactive. The test is classed as functional, organism-based.
Test [4] concerns Escherichia coli. Nature of the test: Compound was evaluated for antibacterial activity against Escherichia coli ATCC 25922; Inactive. It is filed as functional, organism-based.

The source made the active and inactive calls. No cut-off for these calls is given here.

A word on the MIC: it is the least concentration at which growth counts as inhibited. `CCOC(C(=O)[O-])N1OC[C@H](NC(=O)c2ccccc2)C1=O.[K+]` (stereo partly specified): the MIC with Staphylococcus aureus [1] and against Escherichia coli [2] was > 1000 µg/mL throughout.

Consider `O=C(COc1ccccc1)N[C@H]1CON(S(=O)(=O)[O-])C1=O.[K+]`, for which the MIC against Staphylococcus aureus [1] and in the test with Escherichia coli [2] was > 500 µg/mL throughout.

As to `CO/N=C(\C(=O)N[C@H]1CON(C(Oc2ccccc2)C(=O)O)C1=O)c1csc(N)n1` (stereo in doubt; 4b), the MIC entry in the test on Staphylococcus aureus [3] and with Escherichia coli [4] was “inactive” each time.

For `CO/N=C(\C(=O)N[C@H]1CON(C(Oc2ccccc2)C(=O)O)C1=O)c1csc(N)n1` (stereo in doubt; 4c), the MIC result in the test with Staphylococcus aureus [3] and in the test with Escherichia coli [4] was “inactive” each time.

Turning to `CO/N=C(\C(=O)N[C@H]1CON(C(Oc2ccc(F)cc2)C(=O)O)C1=O)c1csc(N)n1` (stereo in doubt; 4d), the MIC entry with Staphylococcus aureus [3] and in the test on Escherichia coli [4] was “inactive” in each case.

For `CO/N=C(\C(=O)N[C@H]1CON(C(Oc2ccc(F)cc2)C(=O)O)C1=O)c1csc(N)n1` (stereo in doubt; 4e), the MIC result in the test with Staphylococcus aureus [3] and in the test on Escherichia coli [4] was “inactive” in each case.

Take `CO/N=C(\C(=O)N[C@H]1CON(C(Oc2ccc(Cl)cc2)C(=O)O)C1=O)c1csc(N)n1` (stereo in doubt; 4f): the MIC result in the test with Staphylococcus aureus [3] and in the test on Escherichia coli [4] was “inactive” in each case.

As to `CO/N=C(\C(=O)N[C@H]1CON(C(Oc2ccc(Cl)cc2)C(=O)O)C1=O)c1csc(N)n1` (stereo in doubt; 4g), the MIC entry in the test with Staphylococcus aureus [3] and in the test on Escherichia coli [4] was “inactive” in each case.
